Assay [1] has as its system MOLM-13 cells. In words: Cell viability assay (CellTiter-Glo) in MOLM-13 cells, alone or with gilteritinib. It counts as cell-based. The note with it: Homo sapiens, MOLM-13 cells, three days, CellTiter-Glo. (In ATP-based viability assays light output follows the ATP content of the culture.)
Assay [2] has as its system MV4;11 cells. The assay can be described thus: Cell viability assay (CellTiter-Glo) in MV4;11 cells, alone or with gilteritinib. The format is cell-based. The following applies: Homo sapiens, MV4;11 cells, three days, CellTiter-Glo, read-out: MV4.
The mark [3] stands for this setting: MOLM-13, 72 h, compound alone (without gilteritinib), read-out: MOLM-13 IC50.
The mark [4] stands for this setting: MOLM-13, 72 h, compound with gilteritinib 20 nM, read-out: MOLM-13 IC50 gilteritinib.
[5] abbreviates: MV4-11, 72 h, compound alone (without gilteritinib), 11 IC50.
[6] abbreviates: MV4-11, 72 h, compound with gilteritinib 10 nM, 11 IC50 gilteritinib.
Setting [7] is: 72 h, compound alone (without gilteritinib), read-out: MOLM-13 IC50.
The mark [8] stands for this setting: 72 h, compound with gilteritinib 20 nM, read-out: MOLM-13 IC50 gilteritinib.
The mark [9] stands for this setting: 72 h, compound alone (without gilteritinib), 11 IC50.
[10] abbreviates: 72 h, compound with gilteritinib 10 nM, 11 IC50 gilteritinib.

Read-outs that look alike come from different tables or passages of the source.

For 19 compounds, IC50 results are on record in patent US20240050428A1 (Cullgen (Shanghai), Inc., priority 2020, published 2024).

On to `Cc1cccc2nc(-c3cnn(CCCCCCNc4ccc5c(c4)C(=O)N(C4CCC(=O)NC4=O)C5=O)c3)cnc12` (stereo not shown) [GS-512, 2-(2,6-dioxopiperidin-3-yl)-5-((6-(4-(5-methylquinoxalin-2-yl)-1H-pyrazol-1-yl)hexyl)amino)isoindoline-1,3-dione], for which the IC50 in assay [1] (setting [3]) is 10 to 100 nM; in assay [1] (setting [4]), under 10 nM; in assay [2] (setting [5]), 10 to 100 nM; in assay [2] (setting [6]), 10 to 100 nM.
Turning to `O=C1CCC(N2Cc3cc(NC(=O)c4cccc(N5CCC(n6cc(-c7cnc8ccccc8n7)cn6)CC5)c4)ccc3C2=O)C(=O)N1` (stereo not shown) [GS-513, N-(2-(2,6-Dioxopiperidin-3-yl)-1-oxoisoindolin-5-yl)-3-(4-(4-(quinoxalin-2-yl)-1H-pyrazol-1-yl)piperidin-1-yl)benzamide], the IC50 in assay [1] (setting [3]), in assay [1] (setting [4]), in assay [2] (setting [5]) and in assay [2] (setting [6]) was under 10 nM in each case.
For `O=C1CCC(N2Cc3cc(CNC(=O)Nc4cccc(N5CCC(c6ccccc6)CC5)c4)ccc3C2=O)C(=O)N1` (stereo not shown) [GS-514, 1-((2-(2,6-Dioxopiperidin-3-yl)-1-oxoisoindolin-5-yl)methyl)-3-(3-(4-phenylpiperidin-1-yl)phenyl)urea], the IC50 in assay [1] (setting [7]), in assay [1] (setting [8]), in assay [2] (setting [9]) and in assay [2] (setting [10]) was under 10 nM each time.
Consider `O=C1CCC(N2Cc3cc(NCCCCC(=O)N4CCC(n5cc(-c6cnc7ccccc7n6)cn5)CC4)ccc3C2=O)C(=O)N1` (stereo not shown) [GS-515, 3-(1-Oxo-5-((5-oxo-5-(4-(4-(quinoxalin-2-yl)-1H-pyrazol-1-yl)piperidin-1-yl)pentyl)amino)isoindolin-2-yl)piperidine-2,6-dione], for which the IC50 is over 1000 nM in assay [1] (setting [3]), 100 to 1000 nM in assay [1] (setting [4]), over 1000 nM in assay [2] (setting [5]) and 10 to 100 nM in assay [2] (setting [6]).
Regarding `Cc1ccccc1-c1cnn(CCCCCCNc2ccc3c(c2)C(=O)N(C2CCC(=O)NC2=O)C3=O)c1` (stereo not shown) [GS-516, 2-(2,6-Dioxopiperidin-3-yl)-5-((6-(4-(o-tolyl)-1H-pyrazol-1-yl)hexyl)amino)isoindoline-1,3-dione], the IC50 in assay [1] (setting [3]) is over 1000 nM; in assay [1] (setting [4]) it was 10 to 100 nM; in assay [2] (setting [5]), 100 to 1000 nM; in assay [2] (setting [6]) it was 10 to 100 nM.
`O=C1CCC(N2C(=O)c3ccc(NCCCCCCn4cc(-c5cnc6cc(Br)ccc6n5)cn4)cc3C2=O)C(=O)N1` (stereo not shown) [GS-517, 5-((6-(4-(6-Bromoquinoxalin-2-yl)-1H-pyrazol-1-yl)hexyl)amino)-2-(2,6-dioxopiperidin-3-yl)isoindoline-1,3-dione]: the IC50 was in the range of 100 to 1000 nM in assay [1] (setting [3]), 10 to 100 nM in assay [1] (setting [4]), 100 to 1000 nM in assay [2] (setting [5]) and 10 to 100 nM in assay [2] (setting [6]).
In the case of `O=C(CCC(F)(F)C(=O)N1CCC(n2cc(-c3cnc4ccccc4n3)cn2)CC1)NCc1ccc2c(c1)CN(C1CCC(=O)NC1=O)C2=O` (stereo not shown) [GS-518, N-((2-(2,6-Dioxopiperidin-3-yl)-1-oxoisoindolin-5-yl)methyl)-4,4-difluoro-5-oxo-5-(4-(4-(quinoxalin-2-yl)-1H-pyrazol-1-yl)piperidin-1-yl)pentanamide], the IC50 is 100 to 1000 nM in assay [1] (setting [3]), under 10 nM in assay [1] (setting [4]), 10 to 100 nM in assay [2] (setting [5]) and under 10 nM in assay [2] (setting [6]).
For `O=C1CCC(N2Cc3ccc(NCCCCCn4cc(-c5cnc6ccccc6n5)cn4)cc3C2=O)C(=O)N1` (stereo not shown) [GS-519, 3-(1-Oxo-6-((5-(4-(quinoxalin-2-yl)-1H-pyrazol-1-yl)pentyl)amino)isoindolin-2-yl)piperidine-2,6-dione], the IC50 in assay [1] (setting [3]), in assay [1] (setting [4]), in assay [2] (setting [5]) and in assay [2] (setting [6]) was over 1000 nM each time.
For `O=C1CCC(N2C(=O)c3ccc(NCCCCC(F)(F)C(=O)N4CCC(n5cc(-c6cnc7ccccc7n6)cn5)CC4)cc3C2=O)C(=O)N1` (stereo not shown) [GS-520, 5-((5,5-difluoro-6-oxo-6-(4-(4-(quinoxalin-2-yl)-1H-pyrazol-1-yl)piperidin-1-yl)hexyl)amino)-2-(2,6-dioxopiperidin-3-yl)isoindoline-1,3-dione], the IC50 in assay [1] (setting [3]), in assay [1] (setting [4]), in assay [2] (setting [5]) and in assay [2] (setting [6]) was under 10 nM throughout.
Consider `O=C1CCC(N2C(=O)c3ccc(NCCCCCCn4cc(-c5nc6ccccc6nc5C(F)(F)F)cn4)cc3C2=O)C(=O)N1` (stereo not shown) [GS-522, 2-(2,6-Dioxopiperidin-3-yl)-5-((6-(4-(3-(trifluoromethyl)quinoxalin-2-yl)-1H-pyrazol-1-yl)hexyl)amino)isoindoline-1,3-dione], for which the IC50 in assay [1] (setting [3]) is over 1000 nM; in assay [1] (setting [4]) it was under 10 nM; in assay [2] (setting [5]), 100 to 1000 nM; in assay [2] (setting [6]), 10 to 100 nM.
As to `CC(C)c1nc2ccccc2nc1-c1cnn(CCCCCCNc2ccc3c(c2)C(=O)N(C2CCC(=O)NC2=O)C3=O)c1` (stereo not shown) [GS-523, 2-(2,6-Dioxopiperidin-3-yl)-5-((6-(4-(3-isopropylquinoxalin-2-yl)-1H-pyrazol-1-yl)hexyl)amino)isoindoline-1,3-dione], the IC50 in assay [1] (setting [7]) is over 1000 nM; in assay [1] (setting [8]) it was 100 to 1000 nM; in assay [2] (setting [9]), over 1000 nM; in assay [2] (setting [10]) it was 100 to 1000 nM.
As to `O=C1CCC(N2C(=O)c3ccc(NC4CC(n5cc(-c6cnc7ccccc7n6)cn5)C4)cc3C2=O)C(=O)N1` (stereo not shown) [GS-524, 2-(2,6-Dioxopiperidin-3-yl)-5-((3-(4-(quinoxalin-2-yl)-1H-pyrazol-1-yl)cyclobutyl)amino)isoindoline-1,3-dione], the IC50 in assay [1] (setting [3]) is over 1000 nM; in assay [1] (setting [4]), 10 to 100 nM; in assay [2] (setting [5]) it was 100 to 1000 nM; in assay [2] (setting [6]), 100 to 1000 nM.
For `O=C1CCC(N2C(=O)c3ccc(NCCCCCC(=O)N4CCC(n5cc(-c6cnc7ccc(C8=CCNCC8)cc7n6)cn5)CC4)cc3C2=O)C(=O)N1` (stereo not shown) [GS-525, 2-(2,6-Dioxopiperidin-3-yl)-5-((6-oxo-6-(4-(4-(7-(1,2,3,6-tetrahydropyridin-4-yl)quinoxalin-2-yl)-1H-pyrazol-1-yl)piperidin-1-yl)hexyl)amino)isoindoline-1,3-dione], the IC50 is 10 to 100 nM in assay [1] (setting [3]), under 10 nM in assay [1] (setting [4]), under 10 nM in assay [2] (setting [5]) and under 10 nM in assay [2] (setting [6]).
With `O=C1CCC(N2C(=O)c3ccc(NCCCCCC(=O)N4CCC(n5cc(-c6cnc7ccc(N8CCNCC8)cc7n6)cn5)CC4)cc3C2=O)C(=O)N1` (stereo not shown) [GS-526, 2-(2,6-Dioxopiperidin-3-yl)-5-((6-oxo-6-(4-(4-(7-(piperazin-1-yl)quinoxalin-2-yl)-1H-pyrazol-1-yl)piperidin-1-yl)hexyl)amino)isoindoline-1,3-dione], the IC50 in assay [1] (setting [3]), in assay [1] (setting [4]), in assay [2] (setting [5]) and in assay [2] (setting [6]) was under 10 nM in each case.
For `O=C1CCC(N2C(=O)c3ccc(NC4CC5(C4)CC(n4cc(-c6cnc7ccccc7n6)cn4)C5)cc3C2=O)C(=O)N1` (stereo not shown) [GS-527, 2-(2,6-Dioxopiperidin-3-yl)-5-((6-(4-(quinoxalin-2-yl)-1H-pyrazol-1-yl)spiro[3.3]heptan-2-yl)amino)isoindoline-1,3-dione], the IC50 was over 1000 nM in assay [1] (setting [3]), 100 to 1000 nM in assay [1] (setting [4]), 100 to 1000 nM in assay [2] (setting [5]) and 100 to 1000 nM in assay [2] (setting [6]).
On to `O=C1CCC(N2C(=O)c3ccc(NCCCCCC(=O)N4CCC(n5cc(-c6cnc7ccc(N8CCOCC8)cc7n6)cn5)CC4)cc3C2=O)C(=O)N1` (stereo not shown) [GS-528, 2-(2,6-Dioxopiperidin-3-yl)-5-((6-(4-(4-(7-morpholinoquinoxalin-2-yl)-1H-pyrazol-1-yl)piperidin-1-yl)-6-oxohexyl)amino)isoindoline-1,3-dione], for which the IC50 in assay [1] (setting [3]), in assay [1] (setting [4]), in assay [2] (setting [5]) and in assay [2] (setting [6]) was under 10 nM throughout.
As for `CN1CCN(c2ccc3ncc(-c4cnn(CCCCCCNc5ccc6c(c5)C(=O)N(C5CCC(=O)NC5=O)C6=O)c4)nc3c2)CC1` (stereo not shown) [GS-529, 2-(2,6-Dioxopiperidin-3-yl)-5-((6-(4-(7-(4-methylpiperazin-1-yl)quinoxalin-2-yl)-1H-pyrazol-1-yl)hexyl)amino)isoindoline-1,3-dione], the IC50 in assay [1] (setting [3]) is over 1000 nM; in assay [1] (setting [4]) it was under 10 nM; in assay [2] (setting [5]), 10 to 100 nM; in assay [2] (setting [6]) it was under 10 nM.
`O=C1CCC(N2C(=O)c3ccc(NCCCCCCn4cc(-c5cnc6ccc(N7CCOCC7)cc6n5)cn4)cc3C2=O)C(=O)N1` (stereo not shown) [GS-530, 2-(2,6-Dioxopiperidin-3-yl)-5-((6-(4-(7-morpholinoquinoxalin-2-yl)-1H-pyrazol-1-yl)hexyl)amino)isoindoline-1,3-dione]: the IC50 in assay [1] (setting [3]) was 10 to 100 nM; in assay [1] (setting [4]), under 10 nM; in assay [2] (setting [5]), 10 to 100 nM; in assay [2] (setting [6]) it was under 10 nM.
In the case of `O=C1CCC(N2C(=O)c3ccc(NCCCCCCn4cc(-c5cnc6ccc(C7=CCNCC7)cc6n5)cn4)cc3C2=O)C(=O)N1` (stereo not shown) [GS-531, 2-(2,6-Dioxopiperidin-3-yl)-5-((6-(4-(7-(1,2,3,6-tetrahydropyridin-4-yl)quinoxalin-2-yl)-1H-pyrazol-1-yl)hexyl)amino)isoindoline-1,3-dione], the IC50 is 10 to 100 nM in assay [1] (setting [3]), under 10 nM in assay [1] (setting [4]), 10 to 100 nM in assay [2] (setting [5]) and under 10 nM in assay [2] (setting [6]).
